Laboratory results published in PubChem BioAssay (NCI).
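Step 1: Grow cells in 96-well plates. Step 2: Expose to compound for 48 hours at 5 concentrations. Step 3: Interpolate endpoints linearly; if unreached, use highest concentration. TGI marks complete inhibition of growth.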

Assays:
Test in all cases: growth of human tumour cells (NCI), 48 h
786-0 renal = tested on: 786-0 renal
A498 renal = tested on: A498 renal
A549 NSCLC = tested on: A549 NSCLC
ACHN renal = tested on: ACHN renal
CAKI-1 renal = tested on: CAKI-1 renal
CCRF-CEM leukemia = tested on: CCRF-CEM leukemia
COLO 205 colon = tested on: COLO 205 colon
DLD-1 colon = tested on: DLD-1 colon
DMS 114 small cell lung = tested on: DMS 114 small cell lung
DMS 273 small cell lung = tested on: DMS 273 small cell lung
EKVX NSCLC = tested on: EKVX NSCLC
HCT-116 colon = tested on: HCT-116 colon
HL-60(TB) leukemia = tested on: HL-60(TB) leukemia
HOP-18 NSCLC = tested on: HOP-18 NSCLC
HOP-62 NSCLC = tested on: HOP-62 NSCLC
HOP-92 NSCLC = tested on: HOP-92 NSCLC
HT29 colon = tested on: HT29 colon
IGROV1 ovarian = tested on: IGROV1 ovarian
K-562 leukemia = tested on: K-562 leukemia
KM12 colon = tested on: KM12 colon
KM20L2 colon = tested on: KM20L2 colon
LOX IMVI melanoma = tested on: LOX IMVI melanoma
M14 melanoma = tested on: M14 melanoma
M19-MEL melanoma = tested on: M19-MEL melanoma
MALME-3M melanoma = tested on: MALME-3M melanoma
MOLT-4 leukemia = tested on: MOLT-4 leukemia
NCI-H226 lung = tested on: NCI-H226 lung
NCI-H23 lung = tested on: NCI-H23 lung
NCI-H460 lung = tested on: NCI-H460 lung
OVCAR-3 ovarian = tested on: OVCAR-3 ovarian
OVCAR-4 ovarian = tested on: OVCAR-4 ovarian
OVCAR-5 ovarian = tested on: OVCAR-5 ovarian
OVCAR-8 ovarian = tested on: OVCAR-8 ovarian
RPMI-8226 leukemia = tested on: RPMI-8226 leukemia
RXF 393 renal = tested on: RXF 393 renal
RXF-631 renal = tested on: RXF-631 renal
SF-268 CNS = tested on: SF-268 CNS
SF-295 CNS = tested on: SF-295 CNS
SF-539 CNS = tested on: SF-539 CNS
SK-MEL-2 melanoma = tested on: SK-MEL-2 melanoma
SK-MEL-28 melanoma = tested on: SK-MEL-28 melanoma
SK-MEL-5 melanoma = tested on: SK-MEL-5 melanoma
SK-OV-3 ovarian = tested on: SK-OV-3 ovarian
SN12C renal = tested on: SN12C renal
SNB-19 CNS = tested on: SNB-19 CNS
SNB-75 CNS = tested on: SNB-75 CNS
SNB-78 CNS = tested on: SNB-78 CNS
SR leukemia = tested on: SR leukemia
SW-620 colon = tested on: SW-620 colon
TK-10 renal = tested on: TK-10 renal
U251 CNS = tested on: U251 CNS
UACC-257 melanoma = tested on: UACC-257 melanoma
UACC-62 melanoma = tested on: UACC-62 melanoma
UO-31 renal = tested on: UO-31 renal
XF 498 CNS = tested on: XF 498 CNS

Measured: TGI

OCC(CO)C1c2cccc3ccc4cccc1c4c23
> 100 µM: all assays above
